{"source": "patent EP4574773A1", "about": "“DEVICE AND METHOD FOR TREATING CO[…] EFFLUENTS” (Université Gustave Eiffel, priority 2023, dated 2025)", "tested_on": "heterotrophic micro-organisms", "test": "BOD analyses with increasing perchlorate concentrations (respirometric, activated sludge)", "type": "cell-based", "conditions": "activated sludge from a MBBR reactor; perchlorate 5 and 35 mg L^-1; data not shown", "description": "BOD analyses : For these measurements, the range was 0 - 400 mgO2 L^-1, the BOD test solutions were composed of: 141.6 mL of a mixture of carboxylic acids: oxalic acid (625 mg L^-1), maleic acid (137 mg L^-1), glyoxylic acid (261 mg L^-1), and formic acid oxalic acid (321 mg L^-1); 10 mL of a buffer solution: KH2PO4 (8.6 g L^-1), K2HPO4 (21.75 g L^-1), (Na2HPO4,2H2O) (33.4 g L^-1), NH4Cl (1.7 g L^-1); 0.4 mL of- Allylthiourea (C4H8N2S) (1 g L^-1), and 1 mL of activated sludge from a MBBR reactor who had been previously fed with the raw MLL for 4 months, completed with 11 mL concentrate solutions of perchlorate to obtain respective concentrations in perchlorate of 5 and 35 mg L^-1 in the final 164 mL liquid volume.\nBOD analyses with increasing perchlorate concentrations have been performed following a similar procedure as previously explained in the last section. […]", "data": [{"compound": "[O-][Cl+3]([O-])([O-])O", "note": "[perchlorate]", "values": [{"measurement": "effect on heterotrophic micro-organisms", "value": "inihibiting effect"}]}]}
